Measured values from ChEMBL document CHEMBL4610027, “Identification of Mycobacterium tuberculosis CtpF as a target for designing new antituberculous compounds” (Bioorg Med Chem, 2020).

test: Inhibition of calcium stimulated Mycobacterium tuberculosis H37Ra CtpF mutant ATPase activity using Na2ATP as substrate preincubated for 30 mins followed by substrate addition and measured after 30 mins by colorimetric analysis

Row | SMILES | IC50 [µM]
1 | CCC[C@H](C)NC(=O)CSc1nc2cc(S(=O)(=O)Nc3ccccc3OC)ccc2o1 | 109
2 | COCC(=O)Nc1c(C(=O)OC)n(CCC(C)C)c2ncc(N[C@@H](C)C(C)(C)O)cc12 | 38.4
3 | NS(=O)(=O)[C@H]1CC=C(CNC(=O)CCCc2c[nH]c3ccccc23)S1 | 100
4 | CCCCC(=O)Nc1cccc(C(=O)NCCCNc2cccnc2)c1 | 96.9
5 | C[C@@H](OC(=O)CCCNC1=NS(=O)(=O)c2ccccc21)C(=O)c1c[nH]c2ccccc12 | 102
6 | O=C(CCCC[C@@H]1SC[C@@H]2NC(=O)N[C@@H]21)NCc1cn(-c2ccccc2)nc1-c1ccccc1 | 76.1
7 | CC(=O)C1=C(O)[C@@H]2[C@H]3c4c[nH]c5cccc(c45)C[C@H]3C(C)(C)N2C1=O [CYCLOPIAZONIC ACID] | 94.5
